# Source: patent US20080138462A1, “Lactobacillus buchneri strain LN5665 and its use to improve aerobic stability of silage” (Pioneer Hi-Bred International, Inc., priority 2006, published 2008)
# Assay: Aerobic stability of grass silage (PVC silos, method of Honig)
# Set-up: species or system ryegrass
# Description: Second cut ryegrass was harvested at PLNC. The grass was determined to have an approximate dry matter of 35%.
# Inoculation: Individual strains were supplied as fresh grown overnight culture. Cultures were adjusted to a standard concentration of 5.0×10^7 CFU/mL and applied using a syringe at a rate of 2.2 mL/kg of forage. The application rate for all strains was 1.1×10^5 CFU/g forage. Propionic acid (88%) was applied at a rate of 4.4 mL/kg fresh forage.
# PVC Silos: PVC silos were filled at a packing density of 0.288 kg DM/silo (100 kg DM/m^3); approximately 0.82-0.95 kg/silo. Silos were air infused for 24 hours on days 28 and 42, and opened after 50-60 days of ensiling.
# Aerobic Stability: The method of Honig (Proc. Of the Eurobac. Conf., P. Lingvall and S. Lindgren (ed.) (12-16 Aug. 1986) Swed. Univ. of Agric. Sci. Grass and Forage Report No. 3-1990. Pp. 76-81. Uppsala, Sweden.) was used for measuring aerobic stability (see Table 1). ROT is defined as the time, in hours, for the silage to heat 1.7° C. after exposure to air. Cumm_DD is the integral value of the area between the time ROT is attained and the end of the experiment. Aerobic dry matter loss (% dry matter) was determined relating the increase in temperature and the time to energy losses occurring in the silage.
smiles,measurement,value
"CCC(=O)O [Propionic Acid, Propionic acid]",Aerobic deterioration compared with control grass silages,significantly less aerobic deterioration
